Test results reported in the NIST ThermoML archive (doi:10.1016/j.jct.2015.09.030).

Experiment: xn = mol fraction of the nth substance listed
Details: 100 kPa, Liquid; for mass density: Vibrating tube method; for viscosity: Falling or rolling sphere viscometry

CCCCCCCCCCCCCC[P+](CCCCCC)(CCCCCC)CCCCCC.[Cl-] [trihexyl(tetradecyl)phosphonium chloride] + CO
Details | mass density [kg/m3] | viscosity [mPa·s]
290.15 K, x1 = 0.0156 | 815.9 | –
290.15 K, x1 = 0.0351 | 832.7 | –
290.15 K, x1 = 0.056 | 845.2 | –
290.15 K, x1 = 0.0811 | 856.7 | –
290.15 K, x1 = 0.1271 | 869.2 | –
290.15 K, x1 = 0.2092 | 880.2 | –
290.15 K, x1 = 0.3681 | 889.1 | –
290.15 K, x1 = 0.4851 | 891.6 | –
290.15 K, x1 = 0.6453 | 894.2 | –
290.15 K, x1 = 0.7844 | 895.8 | –
290.15 K, x1 = 0.8997 | 896.8 | –
290.15 K, x1 = 1 | 897.5 | –
293.15 K, x1 = 0.0156 | 813.3 | –
293.15 K, x1 = 0.0351 | 830.4 | –
293.15 K, x1 = 0.056 | 842.9 | –
293.15 K, x1 = 0.0811 | 854.5 | –
293.15 K, x1 = 0.1271 | 867.2 | –
293.15 K, x1 = 0.2092 | 878.2 | –
293.15 K, x1 = 0.3681 | 887.2 | –
293.15 K, x1 = 0.4851 | 889.9 | –
293.15 K, x1 = 0.6453 | 892.5 | –
293.15 K, x1 = 0.7844 | 894 | –
293.15 K, x1 = 0.8997 | 895.1 | –
293.15 K, x1 = 1 | 895.8 | –
295.15 K, x1 = 0.0156 | 811.2 | 1.033
295.15 K, x1 = 0.0351 | 828.8 | 1.798
295.15 K, x1 = 0.056 | 841.4 | 3.34
295.15 K, x1 = 0.0811 | 853.1 | 6.279
295.15 K, x1 = 0.1271 | 865.8 | 15.65
295.15 K, x1 = 0.2092 | 876.9 | 45.36
295.15 K, x1 = 0.3681 | 885.9 | 173
295.15 K, x1 = 0.4851 | 888.9 | 401.5
295.15 K, x1 = 0.6453 | 891.4 | 820.4
295.15 K, x1 = 0.7844 | 892.9 | 1285
295.15 K, x1 = 0.8997 | 894 | 1687
295.15 K, x1 = 1 | 894.6 | 1996
298.15 K, x1 = 0.0156 | 809.1 | 0.988
298.15 K, x1 = 0.0351 | 826.4 | 1.695
298.15 K, x1 = 0.056 | 839.2 | 3.092
298.15 K, x1 = 0.0811 | 851 | 5.794
298.15 K, x1 = 0.1271 | 863.8 | 14.29
298.15 K, x1 = 0.2092 | 875 | 40.2
298.15 K, x1 = 0.3681 | 884 | 149.2
298.15 K, x1 = 0.4851 | 887.1 | 339.2
298.15 K, x1 = 0.6453 | 889.7 | 670
298.15 K, x1 = 0.7844 | 891.2 | 1046
298.15 K, x1 = 0.8997 | 892.1 | 1392
298.15 K, x1 = 1 | 892.8 | 1683
303.15 K, x1 = 0.0156 | 804.8 | 0.911
303.15 K, x1 = 0.0351 | 822.4 | 1.542
303.15 K, x1 = 0.056 | 835.4 | 2.704
303.15 K, x1 = 0.0811 | 847.4 | 5.089
303.15 K, x1 = 0.1271 | 860.4 | 12.28
303.15 K, x1 = 0.2092 | 871.8 | 33.24
303.15 K, x1 = 0.3681 | 880.9 | 116.2
303.15 K, x1 = 0.4851 | 884 | 255.5
303.15 K, x1 = 0.6453 | 886.7 | 486.4
303.15 K, x1 = 0.7844 | 888.2 | 744.5
303.15 K, x1 = 0.8997 | 889.1 | 978.6
303.15 K, x1 = 1 | 889.8 | 1174
308.15 K, x1 = 0.0156 | 800.5 | 0.842
308.15 K, x1 = 0.0351 | 818.5 | 1.407
308.15 K, x1 = 0.056 | 831.6 | 2.287
308.15 K, x1 = 0.0811 | 843.9 | 4.496
308.15 K, x1 = 0.1271 | 857.1 | 10.64
308.15 K, x1 = 0.2092 | 868.5 | 27.72
308.15 K, x1 = 0.3681 | 877.8 | 90.86
308.15 K, x1 = 0.4851 | 881 | 197.3
308.15 K, x1 = 0.6453 | 883.7 | 363.3
308.15 K, x1 = 0.7844 | 885.3 | 543.1
308.15 K, x1 = 0.8997 | 886.2 | 700
308.15 K, x1 = 1 | 886.9 | 824.1
313.15 K, x1 = 0.0156 | 796.3 | 0.79
313.15 K, x1 = 0.0351 | 814.5 | 1.289
313.15 K, x1 = 0.056 | 827.9 | 1.901
313.15 K, x1 = 0.0811 | – | 4.071
313.15 K, x1 = 0.1271 | – | 9.437
313.15 K, x1 = 0.2092 | 865.3 | 23.32
313.15 K, x1 = 0.3681 | 874.5 | 81.39
313.15 K, x1 = 0.4851 | 878.6 | 151.5
313.15 K, x1 = 0.6453 | 880.8 | 271.4
313.15 K, x1 = 0.7844 | 882.6 | 396.8
313.15 K, x1 = 0.8997 | 883.2 | 505.7
313.15 K, x1 = 1 | 883.9 | 593.7
